SMILES strings stand for the structures.

In the assay the target is T1, Muscarinic acetylcholine receptor M4 (Homo sapiens) (UniProt P08173).
T1 sequence (whole entry): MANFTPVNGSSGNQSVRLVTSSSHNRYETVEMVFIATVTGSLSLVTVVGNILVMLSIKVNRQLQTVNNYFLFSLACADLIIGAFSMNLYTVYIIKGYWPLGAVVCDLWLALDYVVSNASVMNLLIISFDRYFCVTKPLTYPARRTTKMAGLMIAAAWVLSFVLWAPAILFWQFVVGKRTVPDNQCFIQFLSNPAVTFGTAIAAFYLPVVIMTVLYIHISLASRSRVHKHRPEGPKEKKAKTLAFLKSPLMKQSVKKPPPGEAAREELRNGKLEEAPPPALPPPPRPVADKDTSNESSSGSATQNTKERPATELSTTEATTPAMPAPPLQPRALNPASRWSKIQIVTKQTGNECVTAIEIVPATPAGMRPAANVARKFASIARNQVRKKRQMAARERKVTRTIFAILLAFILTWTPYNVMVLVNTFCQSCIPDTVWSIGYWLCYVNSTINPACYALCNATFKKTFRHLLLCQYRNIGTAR
The assay can be described thus: Positive allosteric modulation of human muscarinic acetylcholine receptor M4 expressed in CHOK1 cells assessed as increase in acetylcholine-induced […] preincubated for 4 mins followed by acetylcholine addition measured for 3.5 mins by FLIPR assay. The assay is classed as functional, cell-based.
On to `Cc1cc2c(nc1N1CCC(Oc3ccc4c(n3)COC4)CC1)[C@H](CO)N(C)C2=O`, for which the IP was determined as 30 µM.

On to `Cc1cc2c(nc1N1CCC(Oc3cnc4[nH]nc(C)c4c3)CC1)CNC2=O`, for which the IP was found to be 6.07 µM. On to `COc1ccc(O[C@@H]2CCN(c3nc4c(cc3C)C(=O)N(C)[C@H]4CO)C[C@H]2F)cn1`, for which the IP was 8.06 µM. Next, `CCOc1ccc(OC2CCN(c3nc4c(cc3C)C(=O)N(C)[C@H]4CO)CC2)cn1`: 8.62 µM; `COCCOC1CCN(c2nc3c(cc2C)C(=O)NC3)CC1`: 11.2 µM. Then `CCN1C(=O)c2c(nc(N3CCC(Oc4ccc5c(c4)COC5)CC3)c(C)c2C)[C@@H]1CO`, with 240 µM; and `Cc1cc2c(nc1N1CCC(OC[C@@]3(C)C[C@H]3C#N)CC1)CNC2=O`, with 30 µM; and `Cc1cc2c(nc1N1CCC(OC3CCOC3)CC1)CNC2=O` (centres undefined), with 11.3 µM. Regarding `COc1ccc(O[C@H]2CCN(c3nc4c(cc3C)C(=O)NC4)C[C@H]2C)cn1`, the IP is 30 µM.

For the origin of these results see ChEMBL document CHEMBL4190355, “Allosteric Modulators of the M4 Muscarinic Acetylcholine Receptor” (ACS Med Chem Lett, 2017).
